Source: PubChem BioAssay AID1259407 (Chemical Carcinogenesis Research Information System (CCRIS), 2018)
Activity calls are given as the source filed them. How the calls were made is not given here.

System: CCRIS mutagenicity, Ames/micronucleus/aberration tests
Test: CCRIS mutagenicity studies
Details: Test System: AMES SALMONELLA TYPHIMURIUM, Method: STANDARD PLATE

SMILES | mutagenic call (Strain/Indicator: TA98, Metabolic Activation: RAT, LIVER, S-9, AROCLOR 1254) | mutagenic call (Strain/Indicator: TA100, Metabolic Activation: NONE)
Cc1cc2c(nc(N)n2C)c2nc(-c3ccccc3)cnc12 | active; positive | 
Cc1c(C)c2c3c(ccc2c2ccccc12)[C@@H](O)[C@H](O)[C@@H]1O[C@H]31 |  | active; positive
